Data on eleven compounds can be found in ChEMBL document CHEMBL1201862, “PubChem BioAssay data set” (2004).

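1) Cells in 96-well plates. 2) Compound, 48 h, 5 concentrations. 3) Linear interpolation between surrounding doses. 4) Unreached endpoint = highest concentration. At the GI50, growth is halved.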 Activity calls are given as the source filed them. No stated cut-off is given here; in the data, active = GI50 up to about 1.1 µM and inactive = higher.

Test systems include MDA-MB-231; SN12C; SF-268; NCI-H226; HL-60; MOLT-4; PC-3; Hs-578T; U-251; NCI-H522; A549; UACC-62; SR; MDA-N.
Holding throughout (test): DTP human tumour cell line panel, 48 h

What is called GI50 is the concentration at which growth is held to half of that of the control. Turning to `COc1ccc([I+]c2ccc(OC)cc2)cc1`, the GI50 in the test with MDA-MB-231 is > 100 µM (inactive); in the test on SN12C, 40.8 µM (inactive); in the test on SF-268, > 84.5 µM (inactive); in the test on NCI-H226, 32.7 µM (inactive); with HL-60 it was 27 µM (inactive); in the test on MOLT-4 it was > 100 µM (inactive). The GI50 is > 60 µM (inactive) with PC-3; > 100 µM (inactive) in the test on Hs-578T; 34 µM (inactive) in the test with U-251; > 61.1 µM (inactive) in the test on NCI-H522; 1.87 µM (inactive) in the test with A549; > 100 µM (inactive) in the test with UACC-62. The GI50 in the test with SR is > 50.5 µM (inactive).

For `C/C(=C\c1ccc(Cl)cc1)C(C)(C)C(=O)O`, the GI50 in the test on MDA-N, in the test on MDA-MB-231, in the test on SN12C, with SF-268, in the test with NCI-H226 and in the test on HL-60 was > 100 µM (inactive) in each case. Moreover, the GI50 in the test on MOLT-4, in the test with PC-3, in the test on Hs-578T, with U-251, in the test with NCI-H522 and in the test on A549 was > 100 µM (inactive) in each case. In addition, the GI50 with UACC-62 was > 100 µM (inactive); in the test with SR, 3.75 µM (inactive).

On to `CC(=O)Nc1ccc(/C=C/C(=O)N2CC(CCl)c3c2cc(N)c2ccccc32)cc1` (stereo not given), for which the GI50 in the test on MDA-N is 0.00553 µM (active); in the test with MDA-MB-231 it was < 0.005 µM (active); with SN12C, < 0.005 µM (active); in the test with SF-268, < 0.005 µM (active); in the test with NCI-H226, < 0.005 µM (active); in the test on MOLT-4, < 0.005 µM (active). Also, the GI50 with PC-3, in the test with U-251, in the test on NCI-H522, with A549, in the test with UACC-62 and in the test on SR was < 0.005 µM (active) throughout.

Regarding `CCOP(=O)(OCC)/C(C#N)=C/c1cccn1Cc1ccccc1`, the GI50 in the test with MDA-N is 29.9 µM (inactive); in the test on MDA-MB-231, 22.4 µM (inactive); with SN12C it was 31.1 µM (inactive); in the test with SF-268 it was 43.5 µM (inactive); in the test with NCI-H226, 20.7 µM (inactive); with MOLT-4, 17.2 µM (inactive). Moreover, the GI50 was 31.9 µM (inactive) in the test on PC-3; 22.6 µM (inactive) in the test with U-251; 23.8 µM (inactive) in the test on NCI-H522; 34.8 µM (inactive) in the test with A549; 19.9 µM (inactive) with UACC-62; 31.3 µM (inactive) with SR.

On to `N#Cc1c(N2CCOCC2)ncn(-c2ccccc2)c1=O`, for which the GI50 in the test on MDA-N was > 100 µM (inactive); with SN12C, > 100 µM (inactive); with NCI-H226, > 100 µM (inactive); with HL-60, 3.08 µM (inactive); with MOLT-4, > 100 µM (inactive); with PC-3, > 100 µM (inactive). The GI50 in the test on U-251, in the test on A549, in the test with UACC-62 and in the test on SR was > 100 µM (inactive) throughout.

With `O=C1CSC(c2ccccc2)N1c1ccc(-c2ccc(-n3c(-c4ccccc4)nc4ccccc4c3=O)cc2)cc1` (stereo not given), the GI50 in the test with MDA-N was 64.9 µM (inactive); with MDA-MB-231, 40.9 µM (inactive); in the test with SN12C, > 100 µM (inactive); in the test with SF-268, 49.4 µM (inactive); with HL-60, 27.4 µM (inactive); in the test on MOLT-4, 19.6 µM (inactive). The GI50 in the test with PC-3 is 37.9 µM (inactive); in the test on Hs-578T it was > 100 µM (inactive); with U-251, 56.9 µM (inactive); in the test with NCI-H522 it was 47.8 µM (inactive); in the test with A549, 41.7 µM (inactive); in the test on UACC-62, 34.6 µM (inactive). Also, the GI50 with SR is 19.5 µM (inactive).

Take `Cc1nnc2sc(N/N=C/c3ccccc3)nn12`: the GI50 in the test on MDA-N is > 100 µM (inactive); in the test with MDA-MB-231, > 100 µM (inactive); in the test with SN12C it was > 100 µM (inactive); with SF-268 it was 61.2 µM (inactive); with NCI-H226, > 100 µM (inactive); in the test with MOLT-4, > 100 µM (inactive). Moreover, the GI50 was > 100 µM (inactive) in the test on PC-3; > 100 µM (inactive) in the test with Hs-578T; > 100 µM (inactive) in the test on U-251; > 100 µM (inactive) with NCI-H522; > 100 µM (inactive) with A549; 23.5 µM (inactive) in the test with UACC-62.

As to `CC1(C)CNC(=O)C2(/C=N/C(C)(C)CNC(=O)C3(/C=N/1)CCCO3)CCCO2` (stereo not given), the GI50 in the test on MDA-N, in the test with MDA-MB-231, in the test on SN12C, in the test with SF-268, in the test on HL-60 and with MOLT-4 was > 10 µM (inactive) throughout. In addition, the GI50 with PC-3, in the test on Hs-578T, in the test on U-251, with NCI-H522, with A549 and with UACC-62 was > 10 µM (inactive) throughout. Further, the GI50 in the test on SR was > 10 µM (inactive).

`CC(C)(C)[Si](C)(C)OCC1CCC(n2cnc3c(N)ncnc32)O1` (stereo not given): the GI50 in the test with MDA-N was 47.1 µM (inactive); with MDA-MB-231, 54.1 µM (inactive); in the test with SN12C it was 69.2 µM (inactive); in the test with NCI-H226 it was > 100 µM (inactive); in the test with HL-60 it was 48.9 µM (inactive); in the test with MOLT-4, 14.7 µM (inactive). Moreover, the GI50 in the test on PC-3 was 28.2 µM (inactive); in the test with Hs-578T, 72.1 µM (inactive); in the test on U-251 it was > 100 µM (inactive); in the test on UACC-62, 59.2 µM (inactive); in the test on SR, > 10 µM (inactive).

`Cc1ccc(S(=O)(=O)NC(=O)NC(Cc2ccccc2)C(=O)O)cc1` (stereo not given): the GI50 with MDA-MB-231, with SN12C, in the test with SF-268, with HL-60, in the test with MOLT-4 and in the test on PC-3 was > 100 µM (inactive) in each case. Besides, the GI50 in the test on Hs-578T, with U-251, in the test on NCI-H522, in the test with A549, in the test with UACC-62 and in the test with SR was > 100 µM (inactive) throughout.

For the compound `C[C@@H](CC(O)C(O)C(C)(C)O)C1CCC23CC12CCC1[C@@]2(C)CCC(O)C(C)(C)C2CC(OC2OC(CO)C(O)C(O)C2O)[C@]13C` (stereo not given in full), the GI50 with MDA-N, with MDA-MB-231, in the test with SN12C, with SF-268, in the test with NCI-H226 and with HL-60 was > 10 µM (inactive) throughout. Besides, the GI50 in the test on MOLT-4, with PC-3, with Hs-578T, with U-251, in the test with NCI-H522 and with A549 was > 10 µM (inactive) each time. Further, the GI50 with UACC-62 was > 10 µM (inactive).
